Values of other authors in US7709654B2, “Process for producing oxazole, imidazole, pyrrazole boryl compounds” (Board of Trustees of Michigan State University, priority 2006, dated 2010).

Target: T1, cyclooxygenase-2 (COX-2) (Homo sapiens, UniProt P35354)
T1 sequence (P35354 18-604): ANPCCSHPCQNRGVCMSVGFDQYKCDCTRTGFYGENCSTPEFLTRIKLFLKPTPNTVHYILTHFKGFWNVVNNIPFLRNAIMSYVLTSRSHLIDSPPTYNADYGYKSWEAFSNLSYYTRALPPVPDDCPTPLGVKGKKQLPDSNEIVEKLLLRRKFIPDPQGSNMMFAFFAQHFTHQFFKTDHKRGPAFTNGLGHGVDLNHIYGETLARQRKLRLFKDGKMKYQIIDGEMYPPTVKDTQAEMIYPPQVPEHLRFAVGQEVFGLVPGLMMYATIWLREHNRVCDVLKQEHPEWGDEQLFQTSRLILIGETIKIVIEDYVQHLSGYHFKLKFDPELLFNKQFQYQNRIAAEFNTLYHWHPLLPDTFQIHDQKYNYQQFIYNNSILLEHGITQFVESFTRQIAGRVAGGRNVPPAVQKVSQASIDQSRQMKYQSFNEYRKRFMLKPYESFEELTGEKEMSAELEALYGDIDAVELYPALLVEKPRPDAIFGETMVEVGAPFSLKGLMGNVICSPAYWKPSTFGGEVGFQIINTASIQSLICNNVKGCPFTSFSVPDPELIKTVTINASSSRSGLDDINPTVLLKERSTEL
Details: COX-2 versus COX-1

## Cc1nc(C2CCCCC2)c(-c2ccc(S(N)(=O)=O)c(F)c2)o1 [JTE-522, 4-(4-cyclohexyl-2-methyloxazol-5-yl)-2-fluorobenzenesulfonamide]
  COX-2 inhibition (in words): potent, highly selective, and orally active COX-2 inhibitor
